Measurements reported in patent publication US20170143712A1, “Methods of Treating Cancers, Immune and Autoimmune Diseases, and Inflammatory Diseases Based on BTK Occupancy and BTK Resynthesis Rate” (Acerta Pharma B.V., priority 2014, published 2017).

How the values were obtained:
[1] = molecular target: BTK (Homo sapiens, UniProt Q06187); experiment: PK/PD model fit and simulation of BTK occupancy and pBTK inhibition; conditions: for BTK resynthesis rate (modeled estimate): 15 mg QD
[2] = Plasma pharmacokinetics in CLL patients; assay type: in vivo; conditions: human, oral administration
Description: In this indication, the rapid resynthesis of BTK in the tumor cells in the CLL cell compartment is observed as a steeper rate of decline in the percentage of BTK sites occupied by Formula (II), compared with what has been observed in normal peripheral blood cells of healthy volunteers (compare linear slope estimates of FIG. 25 with FIG. 34).

[3] = system: established type II collagen-induced arthritis (CIA) in DBA/1 mice; experiment: 14-day mouse established type II collagen-induced arthritis (CIA), PO QD (Example 10); assay type: in vivo; conditions: for AUC (All Paws) - Corrected for Initial Score / Change in Body Weight (g) / Histopathology Summed Score Knees / Histopathology Summed Score Paws / Histopathology Summed Score Six-Joints / Paw Score AUC (All Paws): mean(SE); for disease-induced body weight loss (percent change from baseline) vs vehicle controls / arthritis scores measured daily vs vehicle controls: p<0.05 on the days printed
[4] = 5 mg/kg PO QD, therapeutic paws only
[5] = 25 mg/kg PO QD, therapeutic paws only

BTK, sequence (Q06187 whole entry): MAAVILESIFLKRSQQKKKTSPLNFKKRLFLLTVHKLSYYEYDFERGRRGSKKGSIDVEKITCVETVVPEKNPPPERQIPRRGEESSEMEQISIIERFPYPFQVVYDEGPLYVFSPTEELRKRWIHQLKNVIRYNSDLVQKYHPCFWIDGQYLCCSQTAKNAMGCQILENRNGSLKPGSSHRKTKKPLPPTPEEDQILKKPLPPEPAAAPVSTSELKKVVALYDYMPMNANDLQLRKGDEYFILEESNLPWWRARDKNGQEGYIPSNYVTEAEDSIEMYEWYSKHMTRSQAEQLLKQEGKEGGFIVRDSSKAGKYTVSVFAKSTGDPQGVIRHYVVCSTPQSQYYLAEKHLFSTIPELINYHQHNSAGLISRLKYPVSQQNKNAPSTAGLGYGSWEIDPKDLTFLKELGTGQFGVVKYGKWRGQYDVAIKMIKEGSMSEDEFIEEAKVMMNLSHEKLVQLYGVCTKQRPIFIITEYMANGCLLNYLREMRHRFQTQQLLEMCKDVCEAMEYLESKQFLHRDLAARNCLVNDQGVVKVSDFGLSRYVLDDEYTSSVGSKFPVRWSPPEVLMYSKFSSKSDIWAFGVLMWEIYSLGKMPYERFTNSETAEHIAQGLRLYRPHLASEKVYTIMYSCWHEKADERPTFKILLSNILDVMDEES

CC#CC(=O)N1CCC[C@H]1c1nc(-c2ccc(C(=O)Nc3ccccn3)cc2)c2c(N)nccn12 [Formula (II), (S)-4-(8-amino-3-(1-(but-2-ynoyl)pyrrolidin-2-yl)imidazo[1,5-a]pyrazin-1-yl)-N-(pyridin-2-yl)benzamide]
k4,1 (model rate constant) ([1]; 15 mg QD model fit): 0.91
BTK resynthesis rate (modeled estimate) ([1]; after the first 48 hours): 0.04
BTK resynthesis rate (modeled estimate) ([1]; first 48 hours): 0.1
Tmax [2]: ~1 h
AUC (All Paws) - Corrected for Initial Score ([3]; 1 mg/kg PO QD): 14.99(3.62)
Change in Body Weight (g) ([3]; 1 mg/kg PO QD): −0.36(0.77) g
Histopathology Summed Score Knees ([3]; 1 mg/kg PO QD): 4.90(1.32)
Histopathology Summed Score Paws ([3]; 1 mg/kg PO QD): 7.95(1.54)
Histopathology Summed Score Six-Joints ([3]; 1 mg/kg PO QD): 6.93(1.22)
Paw Score AUC (All Paws) ([3]; 1 mg/kg PO QD): 22.14(4.11)
disease-induced body weight loss (percent change from baseline) vs vehicle controls ([3]; 1 mg/kg PO QD): significantly inhibited toward normal
daily arthritis scores vs vehicle controls ([3]; 1 mg/kg PO QD, prophylactic paws): significantly reduced toward normal
knee histopathology parameters ([3]; 1 mg/kg, compared to 1 mg/kg ibrutinib): significantly improved
six-joint histopathology, reduction of summed scores vs vehicle controls ([3]; 5 mg/kg PO QD): 86%
total body weight loss from enrollment to study termination ([3]; 5 mg/kg PO QD): significantly inhibited
Clinical arthritis scores AUC, reduction vs vehicle controls ([3]; 5 mg/kg PO QD, all paws): 82%
Clinical arthritis scores AUC, reduction when corrected for initial enrollment score ([3]; 5 mg/kg PO QD, all paws): 99%
arthritis scores measured daily vs vehicle controls ([3]; 5 mg/kg PO QD, all paws): significantly reduced toward normal
AUC (All Paws) - Corrected for Initial Score ([3]; 5 mg/kg PO QD): *0.43(2.76)
Change in Body Weight (g) ([3]; 5 mg/kg PO QD): *1.23(0.52) g
Histopathology Summed Score Knees ([3]; 5 mg/kg PO QD): *1.48(0.94)
Histopathology Summed Score Paws ([3]; 5 mg/kg PO QD): *2.23(0.72)
Histopathology Summed Score Six-Joints ([3]; 5 mg/kg PO QD): *1.98(0.69)
Paw Score AUC (All Paws) ([3]; 5 mg/kg PO QD): *7.58(2.63)
disease-induced body weight loss (percent change from baseline) vs vehicle controls ([3]; 5 mg/kg PO QD): significantly inhibited toward normal
daily arthritis scores vs vehicle controls ([3]; 5 mg/kg PO QD, prophylactic paws): significantly reduced toward normal
Clinical arthritis scores AUC, reduction vs vehicle controls ([3]; 5 mg/kg PO QD, prophylactic paws only): 94%
daily arthritis scores vs vehicle controls ([3]; 5 mg/kg PO QD, therapeutic paws): significantly reduced toward normal
Clinical arthritis scores AUC, reduction vs vehicle controls [3, 4]: 64%
Clinical arthritis scores AUC, reduction when corrected for initial enrollment score [3, 4]: 110%
six-joint histopathology, reduction of summed scores vs vehicle controls ([3]; 25 mg/kg PO QD): 93%
total body weight loss from enrollment to study termination ([3]; 25 mg/kg PO QD): significantly inhibited
Clinical arthritis scores AUC, reduction vs vehicle controls ([3]; 25 mg/kg PO QD, all paws): 95%
Clinical arthritis scores AUC, reduction when corrected for initial enrollment score ([3]; 25 mg/kg PO QD, all paws): 115%
arthritis scores measured daily vs vehicle controls ([3]; 25 mg/kg PO QD, all paws): significantly reduced toward normal
AUC (All Paws) - Corrected for Initial Score ([3]; 25 mg/kg PO QD): *−5.24(1.36)
Change in Body Weight (g) ([3]; 25 mg/kg PO QD): *1.01(0.66) g
Histopathology Summed Score Knees ([3]; 25 mg/kg PO QD): *1.25(0.43)
Histopathology Summed Score Paws ([3]; 25 mg/kg PO QD): *0.94(0.40)
Histopathology Summed Score Six-Joints ([3]; 25 mg/kg PO QD): *1.04(0.36)
Paw Score AUC (All Paws) ([3]; 25 mg/kg PO QD): *1.91(0.96)
disease-induced body weight loss (percent change from baseline) vs vehicle controls ([3]; 25 mg/kg PO QD): significantly inhibited toward normal
daily arthritis scores vs vehicle controls ([3]; 25 mg/kg PO QD, prophylactic paws): significantly reduced toward normal
Clinical arthritis scores AUC, reduction vs vehicle controls ([3]; 25 mg/kg PO QD, prophylactic paws only): 100%
daily arthritis scores vs vehicle controls ([3]; 25 mg/kg PO QD, therapeutic paws): significantly reduced toward normal
Clinical arthritis scores AUC, reduction vs vehicle controls [3, 5]: 89%
Clinical arthritis scores AUC, reduction when corrected for initial enrollment score [3, 5]: 152%
spleen weights compared to vehicle controls ([3]; all dose groups PO QD): not significantly affected
